Results as given in ChEMBL document CHEMBL3112436, “Discovery of a novel series of indoline carbamate and indolinylpyrimidine derivatives as potent GPR119 agonists” (Bioorg Med Chem, 2014).
≈ marks a conversion by molar mass, not a printed value.

Key:
[1] = biological target: T1, Glucose-dependent insulinotropic receptor (Homo sapiens, UniProt Q8TDV5); experiment: Agonist activity at human GPR119 transfected in CHO cells assessed as cAMP accumulation after 2 hrs by luciferase reporter gene assay; assay type: functional, cell-based
T1 sequence (Q8TDV5 whole entry): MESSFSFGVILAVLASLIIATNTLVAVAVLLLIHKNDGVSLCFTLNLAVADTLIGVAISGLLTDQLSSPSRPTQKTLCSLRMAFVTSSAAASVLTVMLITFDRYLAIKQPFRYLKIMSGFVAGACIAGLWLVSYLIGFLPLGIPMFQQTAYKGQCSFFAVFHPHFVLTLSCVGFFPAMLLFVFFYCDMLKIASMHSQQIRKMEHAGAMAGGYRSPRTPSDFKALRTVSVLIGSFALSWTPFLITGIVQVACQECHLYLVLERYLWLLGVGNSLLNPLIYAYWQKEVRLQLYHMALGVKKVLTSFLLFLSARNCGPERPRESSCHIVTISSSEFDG

[2] = 1-Octanol-water partition coefficient, log D of the compound at pH 7.4 by HPLC analysis; assay type: physicochemical
[3] = Aqueous solubility of the compound in buffer at pH 6.8 by HPLC analysis; assay type: physicochemical
Rattus norvegicus [4] = experiment: Antidiabetic activity in Wistar fatty rat type 2 diabetic model assessed as reduction of plasma glucose level at 10 mg/kg, po administered 1 hr prior to glucose challenge by oral glucose tolerance test; assay type: functional, organism-based; parameters: dose 10 mg/kg; conditions: TDE = time-dependent effect
Rattus norvegicus [5] = experiment: Antidiabetic activity in Wistar fatty rat type 2 diabetic model assessed as increase in insulin secretion at 10 mg/kg, po administered 1 hr prior to glucose challenge by oral glucose tolerance test; assay type: functional, organism-based; parameters: dose 10 mg/kg; conditions: TDE = time-dependent effect
Rattus norvegicus [6] = experiment: Antidiabetic activity in Wistar fatty rat type 2 diabetic model assessed as reduction of plasma glucose level at 30 mg/kg, po administered 1 hr prior to glucose challenge by oral glucose tolerance test; assay type: functional, organism-based; parameters: dose 30 mg/kg; conditions: TDE = time-dependent effect
Rattus norvegicus [7] = experiment: Antidiabetic activity in Wistar fatty rat type 2 diabetic model assessed as increase in insulin secretion at 30 mg/kg, po administered 1 hr prior to glucose challenge by oral glucose tolerance test; assay type: functional, organism-based; parameters: dose 30 mg/kg; conditions: TDE = time-dependent effect

| SMILES | EC50 [1] [nM] | logD [2] | solubility [3] [µg/mL] | Activity (Rattus norvegicus [4]) | Activity (Rattus norvegicus [5]) | Activity (Rattus norvegicus [6]) | Activity (Rattus norvegicus [7]) |
| --- | --- | --- | --- | --- | --- | --- | --- |
| CC(C)(C)OC(=O)N1CCC(n2ccc3c(N4CCc5cc(S(C)(=O)=O)ccc54)ncnc32)CC1 | 16 | – | – | – | – | – | – |
| Cc1cc(S(C)(=O)=O)cc2c1N(C(=O)OCCC1CCN(C(=O)OC(C)(C)C)CC1)CC2 | 44 | 3.2 | 44 (≈ 94.3 µM) | – | – | – | – |
| CC(C)OC(=O)N1CCC(Oc2ccnc(N3CCc4cc(S(C)(=O)=O)ccc43)n2)CC1 | 8800 | 3.5 | – | – | – | – | – |
| CC(C)(C)OC(=O)N1CCC(CCOC(=O)N2CCc3cc(S(C)(=O)=O)cc(F)c32)CC1 | 25 | 3 | 42 (≈ 89.3 µM) | – | – | – | – |
| CC(COC(=O)N1CCc2cc(S(C)(=O)=O)cc(F)c21)C1CCN(C(=O)OC(C)(C)C)CC1 (racemic) | 6.8 | 3.3 | 21 (≈ 43.3 µM) | – | – | – | – |
| COc1cc2c(cc1S(C)(=O)=O)CCN2C(=O)OCCC1CCN(C(=O)OC(C)(C)C)CC1 | 4800 | 3.3 | 45 (≈ 93.2 µM) | – | – | – | – |
| CC(C)(C)OC(=O)N1CCC(CCOC(=O)N2CCc3c2ccc(S(C)(=O)=O)c3F)CC1 | 25 | 3.2 | 0.81 (≈ 1.72 µM) | – | – | – | – |
| COc1cc(S(C)(=O)=O)cc2c1N(C(=O)OCCC1CCN(C(=O)OC(C)(C)C)CC1)CC2 | 1700 | 2.8 | 64 (≈ 133 µM) | – | – | – | – |
| CC(COC(=O)N1CCc2cc(S(C)(=O)=O)ccc21)C1CCN(C(=O)OC(C)(C)C)CC1 (racemic) | 8.4 | 3.4 | – | – | – | – | – |
| CCc1cnc(N2CCC(Oc3cc(N4CCc5cc(S(C)(=O)=O)ccc54)ncn3)CC2)nc1 | 11 | 3.8 | – | – | – | – | – |
| CC(C)(C)OC(=O)N1CCC(CCNC(=O)N2CCc3cc(S(C)(=O)=O)ccc32)CC1 | 2500 | 2.3 | – | – | – | – | – |
| CC(C)(C)OC(=O)N1CCC(CCOC(=O)N2CCc3cc(S(C)(=O)=O)c(F)cc32)CC1 | 160 | 3.3 | 0.67 (≈ 1.42 µM) | – | – | – | – |
| CC(C)OC(=O)N1CCC(Oc2cccc(N3CCc4cc(S(C)(=O)=O)ccc43)c2)CC1 | 490 | 3.5 | – | – | – | – | – |
| CC(C)(C)OC(=O)N1CCC(CCCC(=O)N2CCc3cc(S(C)(=O)=O)ccc32)CC1 | 120 | 2.9 | – | – | – | – | – |
| CC(C)(C)OC(=O)N1CCC(C(O)COC(=O)N2CCc3cc(S(C)(=O)=O)ccc32)CC1 (racemic) | 2400 | 2.1 | – | – | – | – | – |
| CC(C)OC(=O)N1CCC(Oc2ncnc(N3CCc4cc(S(C)(=O)=O)ccc43)n2)CC1 | 520 | 2.6 | – | – | – | – | – |
| CC(C)(C)OC(=O)N1CCC(CCCCN2CCc3cc(S(C)(=O)=O)ccc32)CC1 | 1400 | 4.1 | – | – | – | – | – |
| CC(C)(C)OC(=O)N1CCC(CCOC(=O)N2CCc3c2ccc(S(C)(=O)=O)c3Cl)CC1 | 530 | 3.6 | 0.21 (≈ 0.431 µM) | – | – | – | – |
| CC(C)(C)OC(=O)N1CCC(CCOC(=O)N2CCc3cc(S(C)(=O)=O)ccc32)CC1 | 68 | 3.1 | – | – | – | – | – |
| CC(CC1CCN(C(=O)OC(C)(C)C)CC1)OC(=O)N1CCc2cc(S(C)(=O)=O)ccc21 (racemic) | 2600 | 3.4 | – | – | – | – | – |
| CC(C)c1noc(N2CCC(Oc3cc(N4CCc5cc(S(C)(=O)=O)ccc54)ncn3)CC2)n1 | 7.7 | 3.1 | – | tde | tde | – | – |
| CC(C)OC(=O)N1CCC(Oc2ccnc(N3CCc4cc(S(C)(=O)=O)ccc43)c2)CC1 | 87 | 3 | – | – | – | – | – |
| CC(C)(C)OC(=O)N1CCC(CCOC(=O)N2CCc3cc(S(C)(=O)=O)cc(Cl)c32)CC1 | 21 | 3.2 | 21 (≈ 43.1 µM) | – | – | – | – |
| CCc1cnc(N2CCC(C(C)COC(=O)N3CCc4cc(S(C)(=O)=O)cc(F)c43)CC2)nc1 (racemic) | 3.9 | 3.6 | 3.8 (≈ 7.75 µM) | – | – | tde | tde |
| CC(C)OC(=O)N1CCC(Oc2cc(N3CCc4cc(S(C)(=O)=O)ccc43)ncn2)CC1 | 17 | 3.1 | – | – | – | – | – |
| Cc1c(S(C)(=O)=O)ccc2c1CCN2C(=O)OCCC1CCN(C(=O)OC(C)(C)C)CC1 | 770 | 3.4 | 0.17 (≈ 0.364 µM) | – | – | – | – |
